Experimental data published in patent US20190119282A1, “IMIDAZOPYRIDAZINES USEFUL AS INHIBITORS OF THE PAR-2 SIGNALING PATHWAY” (Vertex Pharmaceuticals Incorporated, priority 2013, published 2019).
pIC50: −log10 of the molar value.

Assays:
[1] = molecular target: T1, PAR2 (HT-29 cells, SLIGKV activation) (Homo sapiens, UniProt P55085); experiment: Ca FLIPR TETRA assay, ANTAGONIST mode, stimulation with 8 μM SLIGKV; assay type: cell-based; conditions: HT-29 cells, stimulation with 8 μM SLIGKV
T1 construct: host or cells: HT-29 cells
T1 sequence (P55085 26-397): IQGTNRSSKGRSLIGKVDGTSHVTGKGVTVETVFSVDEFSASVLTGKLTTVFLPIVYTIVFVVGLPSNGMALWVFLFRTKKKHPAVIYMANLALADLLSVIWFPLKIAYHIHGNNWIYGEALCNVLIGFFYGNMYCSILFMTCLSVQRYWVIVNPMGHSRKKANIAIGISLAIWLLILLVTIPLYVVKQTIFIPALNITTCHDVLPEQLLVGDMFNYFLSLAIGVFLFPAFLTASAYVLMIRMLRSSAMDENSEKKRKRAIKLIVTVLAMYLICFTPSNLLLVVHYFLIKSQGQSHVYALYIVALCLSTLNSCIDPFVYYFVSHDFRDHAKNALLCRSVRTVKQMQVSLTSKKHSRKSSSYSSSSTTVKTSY
In short: (§1)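 Antagonist-mode FLIPR Tetra Ca2+ readout: after 30 min r.t. compound pre-incubation, HT-29 cells are challenged with trypsin (3.1 U/mL final), SLIGKV (8 μM), thrombin (1 U/mL) or UTP (0.6 μM). Cells were plated overnight in 1% FBS medium and dye-loaded with Calcium 5; an initial read checks compound agonism.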

[2] = tested on: Thrombin-stimulated Ca2+ response in HT-29 cells; experiment: Ca FLIPR TETRA assay, ANTAGONIST mode, stimulation with 1 U/mL Thrombin; assay type: cell-based, human; conditions: for pIC50: Homo sapiens, HT-29 cells, stimulation with 1 U/mL Thrombin
In short: as §1

[3] = tested on: UTP-stimulated Ca2+ response in HT-29 cells; experiment: Ca FLIPR TETRA assay, ANTAGONIST mode, stimulation with 0.6 μM UTP; assay type: cell-based, human; conditions: for pIC50: Homo sapiens, HT-29 cells, stimulation with 0.6 μM UTP
In short: as §1

[4] = molecular target: T2, PAR2 (HT-29 cells, trypsin activation) (Homo sapiens, UniProt P55085); experiment: Ca FLIPR TETRA assay, ANTAGONIST mode, stimulation with 3.1 U/mL trypsin; assay type: cell-based; conditions: HT-29 cells, stimulation with 3.1 U/mL trypsin
T2 construct: host or cells: HT-29 cells
T2 sequence (P55085 26-397): T1 sequence (P55085 26-397)
In short: as §1

pIC50 [1]	pIC50 [2]	pIC50 [3]	pIC50 [4]	Compound	Thrombin % @ concentration ([2]; @ 50 (μM))	UTP % @ concentration ([3]; @ 50 (μM))
8.00	< 5.30	< 5.30	7.82	C[C@H]1CN(C(=O)c2cn3nc(-c4ccc(F)cc4)cc(C(F)(F)F)c3n2)CCN1C(=O)C(O)Cc1ccccc1 (stereo partly shown) [Compound I-92]	–	–
5.44	< 4.30	< 4.30	4.92	CC1CN(C(=O)c2cn3nc(-c4ccc(F)cc4)cc(C(F)(F)F)c3n2)CCCN1C(=O)OC(C)(C)C (stereo not shown) [Compound I-94]	–	–
5.80	< 4.30	4.37	5.14	CNC(=O)[C@@H]1CCN(C(=O)c2cn3nc(-c4ccc(F)cc4)cc(C(F)(F)F)c3n2)C[C@@H]1C [Compound I-95]	–	–
7.36	–	–	6.82	CC(C)c1cc(-c2ccc(F)cc2)nn2cc(C(=O)N3CCN(C(=O)OC(C)(C)C)[C@@H](C)C3)nc12 [Compound I-96]	52% @ 50	66% @ 50
9.15	< 5.30	< 5.30	9.22	CC(C)c1cc(-c2ccc(F)cc2)nn2cc(C(=O)N3CCN(C(=O)[C@H](O)CC(C)(C)C)[C@@H](C)C3)nc12 [Compound I-97]	–	–
8.52	< 4.30	< 4.30	8.00	C=C(C)c1cc(-c2ccc(F)cc2)nn2cc(C(=O)N3CCN(C(=O)[C@H](O)CC(C)(C)C)[C@@H](C)C3)nc12 [Compound I-99]	–	–
6.70	4.37	4.32	5.52	C[C@H]1CN(C(=O)c2cn3nc(-c4ccc(F)cc4)cc(C(F)(F)F)c3n2)CCN1C(=O)C(O)c1cccnc1 (stereo partly shown) [Compound I-100]	–	–
8.15	4.57	4.52	5.85	CC(C)c1cc(-c2ccc(F)cc2)nn2cc(C(=O)N3CCN(C(=O)C(O)c4cccnc4)[C@@H](C)C3)nc12 (stereo partly shown) [Compound I-101]	–	–
8.52	4.77	4.64	8.10	Cc1cc(-c2ccc(F)cc2)nn2cc(C(=O)N3CCN(C(=O)[C@H](O)CC(C)(C)C)CC3(C)C)nc12 [Compound I-102]	–	–
9.40	< 5.30	< 5.30	9.05	CC(C)c1cc(-c2ccc(F)cc2)nn2cc(C(=O)N3CCN(C(=O)[C@H](O)CC(C)(C)C)CC3(C)C)nc12 [Compound I-103]	–	–
8.70	4.82	4.92	8.15	CCc1cc(-c2ccc(F)cc2)nn2cc(C(=O)N3CCN(C(=O)[C@H](O)CC(C)(C)C)[C@@H](C)C3)nc12 [Compound I-104]	–	–
9.40	5.00	5.06	9.10	CC(C)C[C@@H](O)C(=O)N1CCN(C(=O)c2cn3nc(-c4ccc(F)cc4)cc(C(C)C)c3n2)C[C@@H]1C [Compound I-105]	–	–
9.22	< 5.30	< 5.30	9.00	CC(C)c1cc(-c2ccc(F)cc2)nn2cc(C(=O)N3CCN(C(=O)[C@H](O)c4ccccc4Cl)[C@@H](C)C3)nc12 [Compound I-106]	–	–
9.00	5.00	5.02	8.40	CCCCC(O)C(=O)N1CCN(C(=O)c2cn3nc(-c4ccc(F)cc4)cc(C(C)C)c3n2)C[C@@H]1C (stereo partly shown) [Compound I-107]	–	–
9.15	5.08	4.80	9.15	CC(C)c1cc(-c2ccc(F)cc2)nn2cc(C(=O)N3CCN(C(=O)C(O)c4ccc(F)cc4)[C@@H](C)C3)nc12 (stereo partly shown) [Compound I-108]	–	–
9.05	4.96	5.00	8.40	CC(C)CC(O)C(=O)N1CCN(C(=O)c2cn3nc(-c4ccc(F)cc4)cc(C(C)C)c3n2)C[C@@H]1C (stereo partly shown) [Compound I-109]	–	–

pIC50 [1]	pIC50 [2]	pIC50 [3]	pIC50 [4]	Compound	Thrombin % @ concentration ([2]; @ 50 (μM))	UTP % @ concentration ([3]; @ 50 (μM))
6.96	4.72	4.74	5.82	CC(C)c1cc(-c2ccc(F)cc2)nn2cc(C(=O)N3CCN(C(=O)[C@@H](O)C(C)C)[C@@H](C)C3)nc12 [Compound I-110]	–	–
8.15	4.70	4.72	7.82	CC(C)c1cc(-c2ccc(F)cc2)nn2cc(C(=O)N3CCN(C(=O)[C@H](O)C(C)C)[C@@H](C)C3)nc12 [Compound I-111]	–	–
5.62	4.42	4.46	6.00	CC(C)c1cc(-c2ccc(F)cc2)nn2cc(C(=O)N3CCN(C(=O)C(C)(C)O)[C@@H](C)C3)nc12 [Compound I-112]	–	–
9.10	5.08	5.14	8.52	CC(C)c1cc(-c2ccc(F)cc2)nn2cc(C(=O)N3CCN(C(=O)C(O)Cc4ccccc4)[C@@H](C)C3)nc12 (stereo partly shown) [Compound I-113]	–	–
9.30	5.11	5.06	9.22	CC(C)c1cc(-c2ccc(F)cc2)nn2cc(C(=O)N3CCN(C(=O)[C@H](O)C4CCCCC4)[C@@H](C)C3)nc12 [Compound I-114]	–	–
7.00	< 4.30	< 4.30	6.80	CC(C)c1cc(-c2ccc(F)cc2)nn2cc(C(=O)N3CCN(C(=O)C4(O)CC4)[C@@H](C)C3)nc12 [Compound I-115]	–	–
7.92	4.72	4.66	7.14	CC(C)c1cc(-c2ccc(F)cc2)nn2cc(C(=O)N3CCN(C(=O)C(O)C(C)C)[C@@H](C)C3)nc12 (stereo partly shown) [Compound I-116]	–	–
9.52	5.02	5.09	9.05	CC(C)c1cc(-c2ccc(F)cc2)nn2cc(C(=O)N3CCN(C(=O)C(O)c4ccccc4)[C@@H](C)C3)nc12 (stereo partly shown) [Compound I-117]	–	–
7.80	4.51	4.57	6.00	CC[C@@H](O)C(=O)N1CCN(C(=O)c2cn3nc(-c4ccc(F)cc4)cc(C(C)C)c3n2)C[C@@H]1C [Compound I-118]	–	–
6.70	< 4.30	< 4.30	5.68	CC(O)C(=O)N1CCN(C(=O)c2cn3nc(-c4ccc(F)cc4)cc(C(C)C)c3n2)C[C@@H]1C (stereo partly shown) [Compound I-119]	–	–
6.89	4.70	4.62	6.00	CC(C)c1cc(-c2ccc(F)cc2)nn2cc(C(=O)N3CCOCC3(C)C)nc12 [Compound I-120]	–	–
8.40	5.04	< 6.30	8.15	CC(C)c1cc(-c2ccc(F)cc2)nn2cc(C(=O)N3CCN(C(=O)CC4CCCC4)[C@@H](C)C3)nc12 [Compound I-121]	–	–
8.15	5.00	5.00	7.64	CC(C)CC(=O)N1CCN(C(=O)c2cn3nc(-c4ccc(F)cc4)cc(C(C)C)c3n2)C[C@@H]1C [Compound I-122]	–	–
6.70	< 4.30	< 4.30	6.47	CC(O)CC(=O)N1CCN(C(=O)c2cn3nc(-c4ccc(F)cc4)cc(C(C)C)c3n2)C[C@@H]1C (stereo partly shown) [Compound I-123]	–	–
7.59	4.82	4.89	6.80	CCCC(=O)N1CCN(C(=O)c2cn3nc(-c4ccc(F)cc4)cc(C(C)C)c3n2)C[C@@H]1C [Compound I-124]	–	–
